Earlier results on five compounds are cited in patent US7311392B2, “Inkjet recording ink and method of inkjet recording” (Fujifilm Corporation, priority 2002, dated 2007).

For this data set the following is noted: 20° C.; water-miscible organic solvent of the ink.

Regarding `OCC(O)CO` [Glycerin], the “Vapor Pressure [Pa]” value was 0.3 (20° C.) Pa.

`OCCOCCO` [Diethylene glycol]: the “Vapor Pressure [Pa]” value is reported as <1.3 (20° C.) Pa.

As for `CCCCOCCOCCOCCO` [Triethylene glycol monobutyl ether], the “Vapor Pressure [Pa]” value is listed as <1.3 (20° C.) Pa.

`CC(C)O` [Compound 2-Propanol, 2-Propanol]: the “Vapor Pressure [Pa]” value is reported as 4320 (20° C.) Pa.

As for `COCC(C)O` (centres unmarked) [Compound 1-Methoxy-2-propanol, 1-Methoxy-2-propanol], the “Vapor Pressure [Pa]” value was 1013 (20° C.) Pa.
